# Results published in patent publication US20230167467A1, “METHODS AND COMPOSITIONS FOR THE PRODUCTION OF ISOBUTENE” (University of Alaska Anchorage, priority 2020, published 2023).
# Test system: Engineered strains of E. coli
# Format: cell-based
# [1] = after solvent exposure, vs positive control
smiles,measurement,setting,value
CCCCCC [hexane],"expression of acid resistance genes (gad, adi families)",,downregulated
same,"expression of chaperone proteins groLS, spy, and dnaJK",,highly upregulated
same,expression of dihydroxyacetone kinase genes dhaKLM,,upregulated
same,expression of flagellar protein synthesis and assembly genes,,downregulated
same,expression of gadE and adiY,,significantly downregulated
same,expression of galactitol metabolism genes gatABD,,upregulated
same,expression of glpABC (glycerol to glycerone phosphate),,upregulated
same,expression of heat shock proteins and chaperones hslJORUV,,strongest increases
same,expression of ibpAB and clpAB (protein protection and repair),,strongest increases
same,expression of marABC (multiple antibiotic resistance),,upregulated
same,expression of nitrate reductase genes narGHJKP,,upregulated
same,expression of phage shock genes pspABCDE,,highly upregulated
same,change in expression of gene adiA,[1],−4.64 ± 0.88
same,change in expression of gene adiC,[1],−4.53 ± 1.04
same,change in expression of gene adiY,[1],−3.19 ± 0.66
same,change in expression of gene bhsA,[1],3.01 ± 0.60
same,change in expression of gene bssR,[1],1.50 ± 0.44
same,change in expression of gene bssS,[1],5.47 ± 0.84
same,change in expression of gene clpA,[1],2.49 ± 0.63
same,change in expression of gene clpB,[1],5.02 ± 0.69
same,change in expression of gene clpP,[1],1.52 ± 0.59
same,change in expression of gene coaA,[1],−2.34 ± 0.88
same,change in expression of gene coaD,[1],0.57 ± 0.90
same,change in expression of gene cspA,[1],−4.08 ± 0.57
same,change in expression of gene cspB,[1],−4.25 ± 1.30
same,change in expression of gene cspC,[1],−2.22 ± 0.90
same,change in expression of gene cspD,[1],2.07 ± 0.57
same,change in expression of gene cspE,[1],−0.53 ± 0.63
same,change in expression of gene cspF,[1],−3.67 ± 1.04
same,change in expression of gene dhaK,[1],3.83 ± 0.58
same,change in expression of gene dhaL,[1],2.77 ± 0.62
same,change in expression of gene dnaJ,[1],4.46 ± 0.69
same,change in expression of gene dnaK,[1],4.31 ± 0.66
same,change in expression of gene fabA,[1],−0.96 ± 0.75
same,change in expression of gene fabB,[1],2.15 ± 0.66
same,change in expression of gene fabD,[1],−0.89 ± 0.52
same,change in expression of gene flgA,[1],−2.91 ± 1.55
same,change in expression of gene flgB,[1],−6.86 ± 1.62
same,change in expression of gene flgC,[1],−7.12 ± 2.02
same,change in expression of gene flgD,[1],−6.97 ± 1.94
same,change in expression of gene flgE,[1],−5.83 ± 1.20
same,change in expression of gene flgF,[1],−5.93 ± 1.66
same,change in expression of gene flgG,[1],−5.59 ± 1.51
same,change in expression of gene flgH,[1],−4.58 ± 1.75
same,change in expression of gene gabD,[1],−1.81 ± 1.34
same,change in expression of gene gabP,[1],−3.20 ± 1.33
same,change in expression of gene gabT,[1],−1.73 ± 1.30
same,change in expression of gene gadA,[1],−1.47 ± 0.68
same,change in expression of gene gadB,[1],−0.69 ± 0.80
same,change in expression of gene gadC,[1],−0.25 ± 0.80
same,change in expression of gene gadE,[1],−2.22 ± 0.60
same,change in expression of gene gadW,[1],−4.92 ± 0.97
same,change in expression of gene gadX,[1],−2.95 ± 0.57
same,change in expression of gene gadY,[1],−5.22 ± 0.81
same,change in expression of gene glpA,[1],7.69 ± 0.87
same,change in expression of gene glpB,[1],5.40 ± 0.63
same,change in expression of gene glpC,[1],6.04 ± 0.79
same,change in expression of gene groL,[1],4.16 ± 0.57
same,change in expression of gene groS,[1],4.25 ± 0.50
same,change in expression of gene hchA,[1],0.77 ± 0.60
same,change in expression of gene hslJ,[1],2.29 ± 0.65
same,change in expression of gene hslO,[1],3.04 ± 0.64
same,change in expression of gene hslR,[1],3.21 ± 0.65
same,change in expression of gene hslU,[1],3.61 ± 0.55
same,change in expression of gene hslV,[1],2.94 ± 0.61
same,change in expression of gene ibpA,[1],7.63 ± 1.21
same,change in expression of gene ibpB,[1],8.41 ± 1.50
same,change in expression of gene lhgO,[1],−1.20 ± 1.67
same,change in expression of gene lipA,[1],0.42 ± 0.59
same,change in expression of gene lipB,[1],−0.05 ± 0.63
same,change in expression of gene narG,[1],4.03 ± 0.65
same,change in expression of gene narH,[1],3.23 ± 0.61
same,change in expression of gene narI,[1],2.02 ± 0.92
same,change in expression of gene narJ,[1],2.26 ± 0.68
same,change in expression of gene narK,[1],2.20 ± 0.84
same,change in expression of gene potA,[1],−2.87 ± 0.80
same,change in expression of gene potB,[1],−2.22 ± 1.29
same,change in expression of gene potC,[1],−1.06 ± 1.18
same,change in expression of gene pspA,[1],8.97 ± 0.55
same,change in expression of gene pspB,[1],7.11 ± 0.68
same,change in expression of gene rpoA,[1],0.76 ± 0.44
same,change in expression of gene rpoB,[1],0.54 ± 0.40
same,change in expression of gene rpoC,[1],1.02 ± 0.39
same,change in expression of gene rpoD,[1],3.14 ± 0.70
same,change in expression of gene rpoE,[1],−2.64 ± 0.62
same,change in expression of gene rpoH,[1],0.31 ± 0.52
same,change in expression of gene rpoN,[1],−1.24 ± 0.49
same,change in expression of gene rpoS,[1],0.42 ± 0.47
same,change in expression of gene rpoZ,[1],−0.98 ± 0.53
same,change in expression of gene spy,[1],4.12 ± 0.87
same,change in expression of gene tatA,[1],−0.89 ± 0.51
same,change in expression of gene tatB,[1],−0.66 ± 0.58
same,change in expression of gene tatC,[1],−1.03 ± 1.08
same,change in expression of gene tatD,[1],−2.65 ± 1.13
same,change in expression of gene tatE,[1],0.78 ± 0.63
same,number of genes with significant changes in expression,"vs control, Bon Ferroni corrected p-value<0.05",535 genes
